Test results reported in the supplement of paper PMC10307832.

Experiments:
Test in all cases: relative viability (nuclei count vs DMSO), 5 days (fraction); higher = more cells survive
Cediranib + Foretinib = compound: COc1cc2c(Oc3ccc4[nH]c(C)cc4c3F)ncnc2cc1OCCCN1CCCC1 [Cediranib] + COc1cc2c(Oc3ccc(NC(=O)C4(C(=O)Nc5ccc(F)cc5)CC4)cc3F)ccnc2cc1OCCCN1CCOCC1 [Foretinib] (partner 0.25 µM)
Summary of the method: (§1)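 Cells from lung cancer lines were seeded into 1536-well plates and, one day later, dosed by pin tool. Treatments were either a single drug or a fixed dose of an anchor drug with five library-drug doses (not always all listed) in √10 steps. After 5 days, nuclei were stained in a one-step fixation (final 0.05% Triton X-100, 1% formaldehyde, 1 ug/ml Hoechst) and counted on 4× images, and relative viability is the treated-to-vehicle nuclei ratio, as the median of duplicate plates.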

[1] = compound: O=C(C[C@H]1NCCC[C@@H]1O)Cn1cnc2cc(Br)c(Cl)cc2c1=O (racemic) [Halofuginone] + CC(=O)Nc1cccc(-n2c(=O)n(C3CC3)c(=O)c3c(Nc4ccc(I)cc4F)n(C)c(=O)c(C)c32)c1 [Trametinib] (partner 0.02 µM)
Summary of the method: as §1

Halofuginone + Lapatinib = compound: O=C(C[C@H]1NCCC[C@@H]1O)Cn1cnc2cc(Br)c(Cl)cc2c1=O (racemic) [Halofuginone] + CS(=O)(=O)CCNCc1ccc(-c2ccc3ncnc(Nc4ccc(OCc5cccc(F)c5)c(Cl)c4)c3c2)o1 [Lapatinib] (partner 2 µM)
Summary of the method: as §1

[2] = compound: O=C(C[C@H]1NCCC[C@@H]1O)Cn1cnc2cc(Br)c(Cl)cc2c1=O (racemic) [Halofuginone] + CCNC(=O)c1noc(-c2cc(C(C)C)c(O)cc2O)c1-c1ccc(CN2CCOCC2)cc1 [Luminespib] (partner 0.01 µM)
Summary of the method: as §1

Row | Cell Line | relative viability (Cediranib + Foretinib; first compound 0.04 µM) | relative viability (Cediranib + Foretinib; first compound 0.1265 µM) | relative viability (Cediranib + Foretinib; first compound 0.4 µM) | relative viability (Cediranib + Foretinib; first compound 1.265 µM) | relative viability (Cediranib + Foretinib; first compound 4 µM) | relative viability ([1]; first compound 0.001 µM) | relative viability ([1]; first compound 0.003162 µM) | relative viability ([1]; first compound 0.01 µM) | relative viability ([1]; first compound 0.03162 µM) | relative viability ([1]; first compound 0.1 µM) | relative viability (Halofuginone + Lapatinib; first compound 0.001 µM) | relative viability (Halofuginone + Lapatinib; first compound 0.003162 µM) | relative viability (Halofuginone + Lapatinib; first compound 0.01 µM) | relative viability (Halofuginone + Lapatinib; first compound 0.03162 µM) | relative viability (Halofuginone + Lapatinib; first compound 0.1 µM) | relative viability ([2]; first compound 0.001 µM) | relative viability ([2]; first compound 0.003162 µM) | relative viability ([2]; first compound 0.01 µM) | relative viability ([2]; first compound 0.03162 µM) | relative viability ([2]; first compound 0.1 µM)
1 | 201T | 1.28 | 1.57 | 1.03 | 1.02 | 0.754 | 0.71 | 0.715 | 0.703 | 0.723 | 0.663 | 1.02 | 0.97 | 1.05 | 1.04 | 1.04 | 1.06 | 1.04 | 1.03 | 1.08 | 0.866
2 | A549 | 0.903 | 1.07 | 0.858 | 0.975 | 0.899 | – | – | – | – | – | 0.993 | 0.973 | 0.928 | 0.603 | 0.203 | – | – | – | – | –
3 | A-427 | 1.12 | – | 0.948 | 0.925 | 0.942 | 0.823 | 0.787 | 0.742 | 0.714 | 0.634 | 1.08 | 0.977 | 1.01 | 1.07 | 1.07 | 1.08 | 0.934 | 0.913 | 0.818 | 0.733
4 | ABC-1 | 1.17 | 1.2 | 1.04 | – | 0.879 | – | – | – | – | – | 1.22 | 1.32 | 1.1 | 1.06 | 0.912 | – | 0.793 | 0.518 | 0.225 | 0.377
5 | BEN | 0.745 | – | 0.707 | 0.344 | 0.682 | 1.14 | 1.11 | 1.07 | 1.02 | 0.714 | 0.782 | 0.881 | 0.861 | 0.588 | 0.443 | 0.203 | 0.348 | 0.45 | 0.322 | 0.14
6 | CAL-12T | 1.1 | 1.02 | 1.09 | 1.12 | 1.2 | 0.352 | 0.414 | 0.359 | 0.329 | 0.196 | 0.765 | 0.609 | – | 0.729 | 0.561 | 0.73 | 0.548 | 0.489 | 0.423 | 0.14
7 | COR-L23 | 0.943 | 0.938 | 0.916 | 1.05 | 1.09 | 0.681 | 0.641 | 0.592 | 0.598 | 0.0948 | 0.924 | 1.06 | 0.95 | 1.01 | 0.379 | 0.819 | 0.636 | 0.699 | 0.368 | 0.211
8 | COR-L 105 | 1.04 | 1.38 | 0.931 | 0.904 | 1.22 | 0.446 | 0.492 | 0.481 | 0.421 | 0.383 | 0.438 | 0.39 | 0.317 | 0.374 | 0.285 | 0.668 | 0.606 | 0.694 | 0.639 | 0.532
9 | Calu-6 | 0.921 | 0.944 | 0.857 | 0.863 | 0.911 | – | – | – | – | – | 1.18 | 1 | 1.05 | 0.689 | 0.176 | – | – | – | – | –
10 | ChaGo-K-1 | 0.921 | 0.833 | 0.837 | 0.897 | 1 | 0.873 | 0.899 | 0.924 | 0.887 | 0.79 | – | – | – | – | – | 0.683 | 0.712 | 0.713 | 0.563 | 0.563
11 | EBC-1 | 0.109 | 0.107 | 0.103 | 0.104 | 0.0908 | – | – | – | – | – | 0.223 | 0.247 | 0.233 | 0.266 | 0.245 | – | – | – | – | –
12 | EKVX | 0.67 | 0.418 | 0.74 | 0.705 | 0.751 | 0.383 | 0.358 | 0.339 | 0.37 | 0.314 | 0.22 | 0.213 | 0.183 | 0.203 | 0.202 | 0.868 | 0.818 | 0.891 | 0.871 | 0.937
13 | EMC-BAC-2 | 1.04 | 1.11 | 0.984 | 0.991 | 1.03 | 1.02 | 0.913 | 0.83 | 0.85 | 0.321 | 0.952 | 0.888 | 0.86 | 0.89 | 0.807 | 1.13 | 1.14 | 1.17 | 0.896 | 0.649
14 | EPLC-272H | 0.634 | – | 0.634 | – | 0.693 | 0.312 | 0.273 | 0.285 | 0.326 | 0.247 | 0.891 | 0.851 | 0.976 | 0.958 | 0.907 | 0.329 | 0.169 | 0.409 | 0.479 | 0.206
15 | H3255 | 0.788 | – | 0.821 | 0.732 | 0.932 | 0.746 | 0.73 | 0.543 | 0.716 | 0.517 | 0.272 | 0.255 | 0.241 | 0.259 | 0.235 | 0.807 | 0.742 | 0.974 | 0.908 | 0.924
16 | HARA | 0.92 | – | 0.766 | 0.868 | 0.706 | 0.918 | 1.27 | 0.639 | 0.968 | 0.221 | 0.705 | 0.637 | 0.721 | 0.667 | 0.555 | 0.311 | 0.786 | 0.635 | 0.679 | 0.429
17 | HCC-15 | 1.01 | – | 0.946 | 1.07 | 1.09 | 0.415 | 0.412 | 0.399 | 0.368 | 0.31 | 0.88 | 0.887 | 0.829 | 0.863 | 0.785 | 0.307 | 0.311 | 0.653 | 0.453 | 0.317
18 | HCC-44 | – | – | – | – | – | 1.04 | 1.1 | 1.05 | 1.13 | 0.966 | 1.02 | 1.01 | 0.955 | 0.997 | 0.808 | 1.09 | 1.15 | 1 | 1 | 0.155
19 | HCC-78 | 0.584 | 0.73 | 0.576 | 0.58 | 0.593 | 0.775 | 0.718 | 0.709 | 0.766 | 0.503 | 0.931 | 0.698 | 0.707 | 0.903 | 0.137 | – | – | – | – | –
